Laboratory results from patent publication US20100261876A1, “NOVEL METHODS OF […] FOR T[…] PEPTIDES” (priority 2007, published 2010).
Where a SMILES comes first, the peptide text is derived from it.

Experiments:
[1] = tested on: virus isolates (IIIB, 030, 060 and 098); assay: In vitro resistance selection, geometric mean over isolates; type: cell-based, HIV; settings: compared to SEQ ID NO:2
Description: Biological properties of the HIV fusion inhibitor peptides provided herein have been compared with other recognized, effective antiviral agents, including SEQ ID NO: 2 (enfuvirtide). In particular, in vitro resistance comparison studies were performed between the novel SEQ ID NO:9 compound of interest and established antiviral agent SEQ ID NO:2, described in detail as follows: MT2 cells were infected with virus isolates (IIIB, 030, 060 and 098) and cultured in increasing concentrations of SEQ ID NO:2 (enfuvirtide) or SEQ ID NO:9 to select for resistance. The initial peptide concentration was approximately 2 times the IC50 of each peptide against the corresponding wild type isolate. Peptide concentrations were maintained by adding fresh peptide every 1-3 days. Cultures were monitored for cytopathic effect (CPE) using standard techniques and when maximal CPE was achieved, a small aliquot of virus was used for subsequent rounds of infection. Peptide concentrations were increased 2 to 4-fold depending on the length of time in culture when compared to the growth rate of wild type virus. During the course of selection, peptide-free virus stocks were also collected. Peptide-free virus stocks were characterized for gp41 genotypic changes by dideoxy sequencing chemistries and phenotypic susceptibility was determined using a cMAGI infectivity assay.

[2] = Stability in aqueous solution (PBS), peptide remaining in solution by HPLC; type: physicochemical; settings: phosphate-buffered saline (PBS), 10 mg/ml in PBS, about pH 7.3 to 7.5, 37° C., read-out: peptide remaining detectable in solution at 1 week
HIV-Res = assay: Magi-CCR5 infectivity assay, resistant viral isolate; type: cell-based, HIV-1; settings: compared to SEQ ID NO:6 / 7
Source text: Assessment of biological properties included measurement of antiviral activity against HIV-1 strains. In determining antiviral activity (e.g., one measure being the ability to inhibit transmission of HIV to a target cell) of the HIV fusion inhibitor peptides, an in vitro assay which has been shown, by data generated using peptides derived from the HR regions of HIV gp41, to be predictive of antiviral activity observed in vivo was used. […] These assays score for reduction of infectious virus titer employing the indicator cell lines MAGI or the CCR5 expressing derivative cMAGI. Both cell lines exploit the ability of HIV-1 tat to transactivate the expression of a β-galactosidase reporter gene driven by the HIV-LTR. The β-gal reporter has been modified to localize in the nucleus and can be detected with the X-gal substrate as intense nuclear staining within a few days of infection. […] The number of infected cells for each control and peptide dilution was determined with the CCD-imager, and then the IC50 was calculated (expressed in μg/ml).
Viruses resistant to the antiviral activity of a peptide consisting of a base sequence can be produced using standard laboratory methods. […] The cultures are maintained and monitored until syncytia are present. […] The second round of culture is maintained and monitored for presence of virus resistant to the antiviral activity of the peptide. […]

[3] = Intravenous pharmacokinetics in cynomolgus monkeys; type: in vivo, cynomolgus monkeys (Macaca fasicularis); settings: relative to base sequence SEQ ID NO:5
Description: For determining pharmacokinetic properties, an HIV fusion inhibitor peptide or a base sequence from which an HIV fusion inhibitor peptide is derived was dosed intravenously in cynomolgus monkeys (Macaca fasicularis) (other animal models may be used for determining pharmacokinetic properties, as known in the art). At various times post-dose, blood samples were drawn and plasma isolated by centrifugation. Plasma samples were stored frozen until analysis by LC-MS (liquid chromatography/mass spectrometry) in the electrospray, positive-ion mode. An HIV fusion inhibitor or base sequence was eluted from a C18 or C8 HPLC column with a gradient of acetonitrile in a buffer of 10 mM ammonium acetate, pH 6.8. At the time of analysis, plasma samples were deproteinated with either two or three volumes of acetonitrile containing 0.5% formic acid. Duplicate calibration standards in cynomolgus plasma samples were prepared at the same time as the samples and analyzed before and after the samples containing either HIV fusion inhibitor peptide or base sequence. Pharmacokinetic properties were calculated from the plasma concentration-time data using either mono-exponential or bi-exponential mathematical models. Models were derived by non-linear least squares optimization. A 1/C^2 weighting of concentrations was used. […]

Row | SMILES | barrier to development of resistance in vitro [1] | remaining at 168 h, 10 mg/ml [2] [%] | resistance profile (activity against the resistant viral isolate Res) (HIV-Res) | biological half-life, in words [3]
1 | CC[C@H](C)[C@H](NC(=O)[C@H](C)NC(=O)[C@H](CCCNC(=N)N)NC(=O)[C@H](CC(=O)O)NC(=O)[C@H](Cc1c[nH]c2ccccc12)NC(=O)[C@H](C)NC(=O)[C@H](CCC(=O)O)NC(=O)[C@H](Cc1c[nH]c2ccccc12)NC(=O)[C@@H](NC(=O)[C@@H](NC(C)=O)[C@@H](C)O)[C@@H](C)O)C(=O)N[C@@H](C)C(=O)N[C@@H](CCC(=O)O)C(=O)N[C@@H](Cc1ccc(O)cc1)C(=O)N[C@@H](C)C(=O)N[C@@H](C)C(=O)N[C@@H](CCCNC(=N)N)C(=O)N[C@H](C(=O)N[C@@H](CCC(=O)O)C(=O)N[C@@H](C)C(=O)N[C@@H](CC(C)C)C(=O)N[C@@H](CC(C)C)C(=O)N[C@@H](CCCNC(=N)N)C(=O)N[C@@H](C)C(=O)N[C@@H](CC(C)C)C(=O)N[C@@H](CCC(N)=O)C(=O)N[C@@H](CCC(=O)O)C(=O)N[C@@H](CCC(N)=O)C(=O)N[C@@H](CCC(N)=O)C(=O)N[C@@H](CCC(=O)O)C(=O)N[C@@H](CCCCN)C(=O)N[C@@H](CC(N)=O)C(=O)N[C@@H](CCC(=O)O)C(=O)N[C@@H](C)C(=O)N[C@@H](C)C(=O)N[C@@H](CC(C)C)C(=O)N[C@@H](CCCNC(=N)N)C(=O)N[C@@H](CCC(=O)O)C(=O)N[C@@H](CC(C)C)C(N)=O)[C@@H](C)CC [compound 9] (Ac-TTWEAWDRAIAEYAARIEALLRALQEQQEKNEAALREL-NH2) | higher barrier to development of resistance | ≥ 90 | good resistance profile | increased biological half-life
2 | CC[C@H](C)[C@H](NC(=O)[C@H](C)NC(=O)[C@H](CCCNC(=N)N)NC(=O)[C@H](CC(=O)O)NC(=O)[C@H](Cc1c[nH]c2ccccc12)NC(=O)[C@H](C)NC(=O)[C@H](CCC(=O)O)NC(=O)[C@H](Cc1c[nH]c2ccccc12)NC(=O)[C@@H](NC(=O)[C@@H](NC(C)=O)[C@@H](C)O)[C@@H](C)O)C(=O)N[C@@H](C)C(=O)N[C@@H](CCC(=O)O)C(=O)N[C@@H](Cc1ccc(O)cc1)C(=O)N[C@@H](C)C(=O)N[C@@H](C)C(=O)N[C@@H](CCCNC(=N)N)C(=O)N[C@H](C(=O)N[C@@H](CCC(=O)O)C(=O)N[C@@H](C)C(=O)N[C@@H](CC(C)C)C(=O)N[C@@H](CC(C)C)C(=O)N[C@@H](CCCNC(=N)N)C(=O)N[C@@H](C)C(=O)N[C@@H](C)C(=O)N[C@@H](CCC(N)=O)C(=O)N[C@@H](CCC(=O)O)C(=O)N[C@@H](CCC(N)=O)C(=O)N[C@@H](CCC(N)=O)C(=O)N[C@@H](CCC(=O)O)C(=O)N[C@@H](CCCCN)C(=O)N[C@@H](CC(C)C)C(=O)N[C@@H](CCC(=O)O)C(=O)N[C@@H](C)C(=O)N[C@@H](C)C(=O)N[C@@H](CC(C)C)C(=O)N[C@@H](CCCNC(=N)N)C(=O)N[C@@H](CCC(=O)O)C(=O)N[C@@H](CC(C)C)C(N)=O)[C@@H](C)CC [compound 10] (Ac-TTWEAWDRAIAEYAARIEALLRAAQEQQEKLEAALREL-NH2) |  |  | good resistance profile | increased biological half-life
